Data on nine molecules can be found in ChEMBL document CHEMBL5104090, “Recent advances in the medicinal chemistry of carbonic anhydrase inhibitors” (Eur J Med Chem, 2021).

SMILES strings stand for the structures.

Data set [1] deals with T1, Carbonic anhydrase 2 (Homo sapiens, UniProt P00918).
Data set [2] addresses T2, Carbonic anhydrase 1 (Homo sapiens, UniProt P00915).
The target of data set [3] is T1, Carbonic anhydrase 2. The source holds these as a separate data set.
Data set [4] has as its target Acetylcholinesterase (Homo sapiens, UniProt P22303).
The target in data set [5] is T2, Carbonic anhydrase 1. The source holds these as a separate data set.
The target of data set [6] is Carbonic anhydrase 4 (Homo sapiens, UniProt P22748).
The target in data set [7] is T1, Carbonic anhydrase 2. This is another data set of the same source.
The target of data set [8] is T2, Carbonic anhydrase 1. This is another data set of the same source.
Data set [9] is described as follows: in vitro. The note with it: human, corneal epithelial cell.
Description: Cytotoxicity against human Corneal epithelial cell assessed as cell growth inhibition at 1 % measured after 96 hrs by MTT assay relative to control
Data set [10] deals with Carbonic anhydrase 9 (Homo sapiens, UniProt Q16790).
In data set [11] the test system is Ca9-22. Briefly: cells. The data set is classed as functional. The note with it: Homo sapiens, time 48 hrs.
Description: Cytotoxicity against human Ca9-22 cells assessed as cell growth inhibition measured after 48 hrs by MTT assay
Data set [12] in a line: in vitro. Conditions: human.
Description: Selectivity index, ratio of CC50 for cytotoxicity against HGF cells to CC50 for cytotoxicity against human Ca9-22 cells by MTT method
The target in data set [13] is Carbonic anhydrase 12 (Homo sapiens, UniProt O43570).
Data set [14] is described as follows: in vitro. Conditions: human. The source holds these as a separate data set.
Description: Selectivity index, ratio of CC50 for cytotoxicity against HPLF cells to CC50 for cytotoxicity against human Ca9-22 cells by MTT method
Data set [15] concerns HSC-2. Briefly: cells. Format: functional. Conditions: Homo sapiens, time 48 hrs.
Description: Cytotoxicity against human HSC-2 cells assessed as cell growth inhibition measured after 48 hrs by MTT assay
Data set [16] addresses T1, Carbonic anhydrase 2. This is another data set of the same source.
Data set [17] can be described thus: in vitro. Conditions: human. The source holds these as a separate data set.
Description: Selectivity index, ratio of CC50 for cytotoxicity against HGF cells to CC50 for cytotoxicity against human HSC-2 cells by MTT method
The target of data set [18] is T2, Carbonic anhydrase 1. This is another data set of the same source.
A short description of data set [19]: in vitro. Conditions: human. The source holds these as a separate data set.
Description: Selectivity index, ratio of CC50 for cytotoxicity against HPLF cells to CC50 for cytotoxicity against human HSC-2 cells by MTT method
For data set [20], the target named is Carbonic anhydrase 5A, mitochondrial (Homo sapiens, UniProt P35218).
Sequence of Carbonic anhydrase 5A, mitochondrial (P35218 whole entry): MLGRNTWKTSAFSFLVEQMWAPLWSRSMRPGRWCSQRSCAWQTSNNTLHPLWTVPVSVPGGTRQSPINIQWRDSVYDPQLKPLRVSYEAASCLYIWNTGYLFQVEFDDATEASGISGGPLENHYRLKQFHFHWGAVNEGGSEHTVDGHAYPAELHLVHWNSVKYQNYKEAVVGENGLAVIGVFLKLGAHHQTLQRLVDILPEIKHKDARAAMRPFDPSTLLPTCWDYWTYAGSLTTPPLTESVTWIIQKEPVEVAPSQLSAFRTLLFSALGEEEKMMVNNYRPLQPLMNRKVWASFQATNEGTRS

T2 sequence (P00915 whole entry): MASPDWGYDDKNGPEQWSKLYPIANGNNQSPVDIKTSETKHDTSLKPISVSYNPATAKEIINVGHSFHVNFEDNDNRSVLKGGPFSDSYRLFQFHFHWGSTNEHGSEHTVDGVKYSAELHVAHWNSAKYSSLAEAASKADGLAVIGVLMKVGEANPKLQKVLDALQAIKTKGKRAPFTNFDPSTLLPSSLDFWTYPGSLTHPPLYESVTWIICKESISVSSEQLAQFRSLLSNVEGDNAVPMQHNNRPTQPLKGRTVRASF
Sequence of Carbonic anhydrase 12 (O43570 whole entry): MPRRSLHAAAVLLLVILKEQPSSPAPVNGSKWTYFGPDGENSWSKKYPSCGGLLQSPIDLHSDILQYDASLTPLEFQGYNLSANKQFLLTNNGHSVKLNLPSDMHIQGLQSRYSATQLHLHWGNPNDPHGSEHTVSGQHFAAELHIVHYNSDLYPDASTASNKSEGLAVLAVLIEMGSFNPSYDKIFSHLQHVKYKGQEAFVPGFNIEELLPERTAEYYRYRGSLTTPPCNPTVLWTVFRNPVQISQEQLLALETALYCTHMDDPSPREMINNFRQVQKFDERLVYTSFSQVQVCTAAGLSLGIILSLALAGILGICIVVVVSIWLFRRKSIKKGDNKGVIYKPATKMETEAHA
Sequence of Acetylcholinesterase (P22303 whole entry): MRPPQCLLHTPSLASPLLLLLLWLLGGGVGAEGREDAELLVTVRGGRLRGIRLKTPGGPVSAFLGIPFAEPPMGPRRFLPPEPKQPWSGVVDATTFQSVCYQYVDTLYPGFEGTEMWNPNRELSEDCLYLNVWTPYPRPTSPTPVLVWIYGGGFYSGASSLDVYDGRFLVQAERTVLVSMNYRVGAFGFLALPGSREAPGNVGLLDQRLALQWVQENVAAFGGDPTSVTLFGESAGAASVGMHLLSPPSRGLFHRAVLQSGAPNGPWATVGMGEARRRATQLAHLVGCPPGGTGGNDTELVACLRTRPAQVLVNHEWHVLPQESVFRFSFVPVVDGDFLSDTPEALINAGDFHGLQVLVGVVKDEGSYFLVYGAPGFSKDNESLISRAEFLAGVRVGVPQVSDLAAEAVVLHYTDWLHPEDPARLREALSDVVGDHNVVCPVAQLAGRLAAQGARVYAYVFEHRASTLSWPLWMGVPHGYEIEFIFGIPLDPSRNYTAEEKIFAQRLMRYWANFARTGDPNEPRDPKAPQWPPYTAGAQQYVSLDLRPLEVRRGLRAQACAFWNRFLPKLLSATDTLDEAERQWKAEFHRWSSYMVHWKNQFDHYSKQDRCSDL
Sequence of Carbonic anhydrase 4 (P22748 whole entry): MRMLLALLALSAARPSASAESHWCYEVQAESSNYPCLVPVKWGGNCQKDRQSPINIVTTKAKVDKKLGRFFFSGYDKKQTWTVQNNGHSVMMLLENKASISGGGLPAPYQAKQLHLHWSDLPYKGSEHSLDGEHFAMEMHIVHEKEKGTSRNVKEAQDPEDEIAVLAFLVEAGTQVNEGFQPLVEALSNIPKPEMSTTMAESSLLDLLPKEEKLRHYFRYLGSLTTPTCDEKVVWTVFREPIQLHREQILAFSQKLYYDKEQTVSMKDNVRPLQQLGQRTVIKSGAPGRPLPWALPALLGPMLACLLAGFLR

Broadly, the Ki is the dissociation constant of the complex between target and ligand, obtained from inhibition or displacement. High values mean lower affinity, low ones higher affinity. In general, IC50 refers to the concentration that gives 50% inhibition. A high value points to lower potency. The molecule `C[C@@H]1O[C@H](NC(=O)c2ccc(S(N)(=O)=O)cc2)[C@H](O)[C@H](O)[C@H]1O` came in with an inhibition constant (Ki) in data set [1] of 0.009 nM. Half-maximal inhibition in data set [2] (IC50) was put at 1800 nM.
Turning to `NS(=O)(=O)c1ccc(N2N=C(c3cccs3)CC2c2ccc(Br)cc2)cc1` (stereo unspecified), the Ki in data set [3] was determined as 37.3 nM; in data set [4], 80.6 nM; in [5] it was 25.6 nM.
In the case of `COc1cc(S(N)(=O)=O)ccc1-c1nc(-c2cccc(F)c2)no1`, the inhibition constant Ki in data set [6] stood at 8.9 nM.
Regarding `CN1CCN(CN2C(=O)C(=O)c3ccccc32)CC1`, the Ki in [7] was 5.02 nM; in data set [8], 8.57 nM.
In general, inhibition refers to the percentage by which the read-out fell short of the control. In the case of `NS(=O)(=O)c1ccc(C(=O)N[C@@H]2O[C@H](CO)[C@@H](O)[C@H](O)[C@@H]2O)cc1`, in data set [1], the Ki was 0.009 nM. In [9], this molecule displayed an inhibition at 96 h, 1 % of 74%.
For the molecule `O=C1C(=O)N(CN2CCOCC2)c2ccccc21`, the values for the Ki in [7] and in [8] were 5.02 nM and 8.57 nM, respectively.
The CC50 is the concentration at which the toxic effect on the cells reaches its halfway point. Take `COc1cc(C2CC(c3ccc(F)cc3)=NN2c2ccc(S(N)(=O)=O)cc2)cc(OC)c1OC` (stereo unspecified): the Ki in [10] is above 44 nM; in data set [13] it was above 9 nM; in data set [16], 0.089 nM; in [18], above 230 nM. Moreover, the half-maximal cytotoxic concentration (CC50) in [11] was 6300 nM; in data set [15], 7300 nM. For the same molecule, the selectivity ratio in data set [12], in data set [14], in [17] and in data set [19] was 1.1 each time.
For `COC(=O)[C@H]1O[C@@H](O)[C@H](O)[C@@H](O)[C@@]1(O)S(=O)(=O)Nc1ccccc1C(N)=O`, the Ki in data set [1] is 0.009 nM. This molecule also displayed a half-maximal inhibitory concentration (IC50) in data set [2] of 1800 nM. In addition, in data set [9], the inhibition at 96 h, 1 % was 74%.
For the molecule `CC(C)[C@@H](NC(=O)OCc1ccccc1)C(=O)NCCc1ccc(S(N)(=O)=O)cc1`, the inhibitory constant (Ki) in [20] was 58.7 nM.
